According to PubChem BioAssay AID256 (DTP/NCI, 2004):
Values joined by “and” are separate entries in the source; they are usually repeats but may differ in a detail not shown here. Equal values may be shown once. Inconclusive results and toxic doses are left out.

Tested on: CD2F1 mice, L1210 leukemia ip, survival T/C
Experiment: NCI In Vivo Anticancer Drug Screen. Data for tumor model L1210 Leukemia (intraperitoneal) in CD2F1 (CDF1) mice
Settings: higher = longer survival
How it was run: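 Implant tumor; dose compound or vehicle; measure endpoint in both groups; report treated divided by control.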

[1] = endpoint: mean survival time, dose: 100.0 mg/kg/injection, schedule: Q01DX001 (ip), vehicle: saline with Tween-80
[2] = endpoint: mean survival time, dose: 100.0 mg/kg/injection, schedule: Q01DX009 (ip), vehicle: saline with Tween-80
[3] = endpoint: mean survival time, dose: 100.0 mg/kg/injection, schedule: Q04DX003 (ip), vehicle: saline with Tween-80
[4] = endpoint: mean survival time, dose: 200.0 mg/kg/injection, schedule: Q01DX009 (ip), vehicle: saline with Tween-80
[5] = endpoint: mean survival time, dose: 200.0 mg/kg/injection, schedule: Q04DX003 (ip), vehicle: saline with Tween-80
[6] = endpoint: mean survival time, dose: 400.0 mg/kg/injection, schedule: Q01DX009 (ip), vehicle: saline with Tween-80
[7] = endpoint: mean survival time, dose: 400.0 mg/kg/injection, schedule: Q04DX003 (ip), vehicle: saline with Tween-80
[8] = endpoint: mean survival time, dose: 200.0 mg/kg/injection, schedule: Q01DX001 (ip), vehicle: saline with Tween-80
[9] = endpoint: mean survival time, dose: 400.0 mg/kg/injection, schedule: Q01DX001 (ip), vehicle: saline with Tween-80
[10] = endpoint: mean survival time, dose: 100.0 mg/kg/injection, schedule: Q04DX003 (ip), vehicle: saline
[11] = endpoint: mean survival time, dose: 100.0 mg/kg/injection, schedule: Q01DX001 (ip), vehicle: carboxymethylcellulose (CMC)
[12] = endpoint: mean survival time, dose: 200.0 mg/kg/injection, schedule: Q01DX001 (ip), vehicle: carboxymethylcellulose (CMC)
[13] = endpoint: mean survival time, dose: 400.0 mg/kg/injection, schedule: Q01DX001 (ip), vehicle: carboxymethylcellulose (CMC)

Compound: C=CCN1/C(=C/C=C\c2sc3ccccc3[n+]2CC=C)Sc2ccccc21
- T/C (endpoint: mean survival time, dose: 2.0 mg/kg/injection, schedule: Q04DX003 (ip), vehicle: saline): 110 % of control
- T/C (endpoint: mean survival time, dose: 4.0 mg/kg/injection, schedule: Q04DX003 (ip), vehicle: saline): 115 % of control

Compound: Cc1c(-c2ccc(C3CCCCC3)cc2)nc2ccc(F)cc2c1C(=O)O
- T/C (endpoint: median survival time, dose: 12.5 mg/kg/injection, schedule: Q01DX005 (ip), vehicle: Klucel (hydroxypropylcellulose) (HPC)): 109 % of control
- T/C (endpoint: median survival time, dose: 12.5 mg/kg/injection, schedule: Q01DX005 (ip), vehicle: sodium bicarbonate): 114 % of control and 104 % of control
- T/C (endpoint: median survival time, dose: 25.0 mg/kg/injection, schedule: Q01DX005 (ip), vehicle: Klucel (hydroxypropylcellulose) (HPC)): 110 % of control
- T/C (endpoint: median survival time, dose: 25.0 mg/kg/injection, schedule: Q01DX005 (ip), vehicle: sodium bicarbonate): 122 % of control and 108 % of control
- T/C (endpoint: median survival time, dose: 50.0 mg/kg/injection, schedule: Q01DX005 (ip), vehicle: sodium bicarbonate): 123 % of control and 124 % of control and 104 % of control
- T/C (endpoint: median survival time, dose: 100.0 mg/kg/injection, schedule: Q01DX005 (ip), vehicle: sodium bicarbonate): 120 % of control and 109 % of control
- T/C (endpoint: median survival time, dose: 100.0 mg/kg/injection, schedule: Q01DX009 (ip), vehicle: Klucel (hydroxypropylcellulose) (HPC)): 182 % of control
- T/C (endpoint: median survival time, dose: 200.0 mg/kg/injection, schedule: Q01DX009 (ip), vehicle: Klucel (hydroxypropylcellulose) (HPC)): 183 % of control
- T/C (endpoint: median survival time, dose: 400.0 mg/kg/injection, schedule: Q01DX009 (ip), vehicle: Klucel (hydroxypropylcellulose) (HPC)): 89 % of control

Compound: Nc1ccn(C2OC3COC2C3O)c(=O)n1 (centres undefined)
- T/C (endpoint: mean survival time, dose: 12.5 mg/kg/injection, schedule: Q01DX005 (ip), vehicle: water): 101 % of control
- T/C (endpoint: mean survival time, dose: 25.0 mg/kg/injection, schedule: Q01DX005 (ip), vehicle: water): 101 % of control
- T/C (endpoint: mean survival time, dose: 50.0 mg/kg/injection, schedule: Q01DX005 (ip), vehicle: water): 102 % of control
- T/C (endpoint: mean survival time, dose: 100.0 mg/kg/injection, schedule: Q01DX005 (ip), vehicle: water): 101 % of control
- T/C (endpoint: mean survival time, dose: 200.0 mg/kg/injection, schedule: Q01DX005 (ip), vehicle: water): 107 % of control

Compound: NNC(=O)C1CCN1C(c1ccccc1)c1ccccc1 (centres undefined)
- T/C [1]: 98 % of control

Compound: COc1ccc(NC(=O)CCC(=O)Oc2ccccc2)cc1
- T/C [2]: 94 % of control
- T/C [3]: 100 % of control
- T/C [4]: 97 % of control
- T/C [5]: 100 % of control
- T/C [6]: 94 % of control
- T/C [7]: 94 % of control

Compound: COC1(OC)C(Cl)=C(Cl)C(Cl)=C1Cl
- T/C (endpoint: mean survival time, dose: 6.25 mg/kg/injection, schedule: Q01DX009 (ip), vehicle: saline with Tween-80): 96 % of control
- T/C (endpoint: mean survival time, dose: 12.5 mg/kg/injection, schedule: Q01DX009 (ip), vehicle: saline with Tween-80): 98 % of control
- T/C (endpoint: mean survival time, dose: 12.5 mg/kg/injection, schedule: Q04DX003 (ip), vehicle: saline with Tween-80): 111 % of control
- T/C (endpoint: mean survival time, dose: 25.0 mg/kg/injection, schedule: Q01DX009 (ip), vehicle: saline with Tween-80): 96 % of control
- T/C (endpoint: mean survival time, dose: 25.0 mg/kg/injection, schedule: Q04DX003 (ip), vehicle: saline with Tween-80): 111 % of control

Compound: CN(C)N=Nc1c(Cl)cccc1Cl
- T/C (endpoint: mean survival time, dose: 9.38 mg/kg/injection, schedule: Q01DX009 (ip), vehicle: Klucel (hydroxypropylcellulose) (HPC)): 101 % of control
- T/C (endpoint: mean survival time, dose: 18.75 mg/kg/injection, schedule: Q01DX009 (ip), vehicle: Klucel (hydroxypropylcellulose) (HPC)): 95 % of control and 103 % of control
- T/C (endpoint: mean survival time, dose: 37.5 mg/kg/injection, schedule: Q01DX009 (ip), vehicle: Klucel (hydroxypropylcellulose) (HPC)): 97 % of control and 110 % of control
- T/C (endpoint: mean survival time, dose: 300.0 mg/kg/injection, schedule: Q01DX009 (ip), vehicle: Klucel (hydroxypropylcellulose) (HPC)): 89 % of control

Compound: CC(C)CN1C(=O)C2C3CCC(O3)C2C1=O (centres undefined)
- T/C (endpoint: mean survival time, dose: 100.0 mg/kg/injection, schedule: Q04DX002 (ip), vehicle: saline with Tween-80): 95 % of control
- T/C (endpoint: mean survival time, dose: 200.0 mg/kg/injection, schedule: Q04DX002 (ip), vehicle: saline with Tween-80): 91 % of control
- T/C (endpoint: mean survival time, dose: 400.0 mg/kg/injection, schedule: Q04DX002 (ip), vehicle: saline with Tween-80): 102 % of control

Compound: CC(C)(C)N
- T/C [1]: 100 % of control
- T/C [8]: 97 % of control
- T/C [9]: 97 % of control

Compound: NCCCNCCNCCCN
- T/C (endpoint: mean survival time, dose: 25.0 mg/kg/injection, schedule: Q04DX003 (ip), vehicle: saline): 101 % of control
- T/C (endpoint: mean survival time, dose: 50.0 mg/kg/injection, schedule: Q04DX003 (ip), vehicle: saline): 101 % of control
- T/C [10]: 97 % of control

Compound: Nc1nc2c(ncn2-c2ccc(O)cc2)c(=O)[nH]1
- T/C [1]: 96 % of control
- T/C [8]: 87 % of control
- T/C [9]: 91 % of control

Compound: [Co+2].[NH-]c1ccccc1C(=O)O.[NH-]c1ccccc1C(=O)O
- T/C [3]: 89 % of control
- T/C [5]: 91 % of control
- T/C [7]: 91 % of control

Compound: Nc1cc2c(nnn2C(c2ccccc2)c2ccccc2)c(N)n1
- T/C [11]: 98 % of control
- T/C [12]: 92 % of control
- T/C [13]: 95 % of control

Compound: CC1CCCCC1O (centres undefined)
- T/C (endpoint: mean survival time, dose: 50.0 mg/kg/injection, schedule: Q01DX001 (ip), vehicle: carboxymethylcellulose (CMC)): 97 % of control
- T/C (endpoint: mean survival time, dose: 50.0 mg/kg/injection, schedule: Q01DX009 (ip), vehicle: saline with Tween-80): 103 % of control
- T/C [11]: 108 % of control
- T/C [2]: 103 % of control
- T/C [10]: 103 % of control
- T/C [12]: 92 % of control
- T/C [4]: 95 % of control
- T/C (endpoint: mean survival time, dose: 200.0 mg/kg/injection, schedule: Q04DX003 (ip), vehicle: saline): 103 % of control
- T/C [13]: 100 % of control
- T/C (endpoint: mean survival time, dose: 400.0 mg/kg/injection, schedule: Q04DX003 (ip), vehicle: saline): 95 % of control

Compound: C=C(Br)CNC(=O)NCCN1CCOCC1
- T/C [2]: 97 % of control
- T/C [4]: 92 % of control
- T/C [6]: 89 % of control

Compound: Cc1cc(=O)[nH]c(O)c1C#N
- T/C [3]: 96 % of control
- T/C [5]: 94 % of control
- T/C [7]: 94 % of control

Compound: CCOC(=O)C(C(=S)NC)=S(C)C
- T/C (endpoint: mean survival time, dose: 100.0 mg/kg/injection, schedule: Q01DX001 (ip), vehicle: other): 92 % of control
- T/C (endpoint: mean survival time, dose: 200.0 mg/kg/injection, schedule: Q01DX001 (ip), vehicle: other): 88 % of control
- T/C (endpoint: mean survival time, dose: 400.0 mg/kg/injection, schedule: Q01DX001 (ip), vehicle: other): 105 % of control

Compound: O=C(O)CCCCCCCCC(=O)c1ccccc1
- T/C [3]: 97 % of control
- T/C [5]: 95 % of control
- T/C [7]: 88 % of control

Compound: O=C1C=CC(=Nc2ccc(O)cc2)O1
- T/C (endpoint: mean survival time, dose: 5.0 mg/kg/injection, schedule: Q01DX009 (ip), vehicle: saline with Tween-80): 100 % of control
- T/C (endpoint: mean survival time, dose: 10.0 mg/kg/injection, schedule: Q01DX009 (ip), vehicle: saline with Tween-80): 94 % of control
- T/C (endpoint: mean survival time, dose: 20.0 mg/kg/injection, schedule: Q01DX009 (ip), vehicle: saline with Tween-80): 104 % of control

Compound: CC[C@@]1(O)C(=O)OCc2c1cc1n(c2=O)Cc2cc3cc(O)ccc3nc2-1
- T/C (endpoint: mean survival time, dose: 2.0 mg/kg/injection, schedule: Q04DX003 (ip), vehicle: other): 155 % of control
- T/C (endpoint: mean survival time, dose: 4.0 mg/kg/injection, schedule: Q04DX003 (ip), vehicle: other): 174 % of control
- T/C (endpoint: mean survival time, dose: 16.0 mg/kg/injection, schedule: Q04DX003 (ip), vehicle: other): 107 % of control
- T/C (endpoint: median survival time, dose: 1.25 mg/kg/injection, schedule: Q04DX002 (ip), vehicle: saline): 184 % of control
- T/C (endpoint: median survival time, dose: 1.5 mg/kg/injection, schedule: Q04DX002 (ip), vehicle: saline): 166 % of control
- T/C (endpoint: median survival time, dose: 2.5 mg/kg/injection, schedule: Q04DX002 (ip), vehicle: saline): 162 % of control and 253 % of control
- T/C (endpoint: median survival time, dose: 3.0 mg/kg/injection, schedule: Q04DX002 (ip), vehicle: suspension in saline): 150 % of control
- T/C (endpoint: median survival time, dose: 5.0 mg/kg/injection, schedule: Q04DX002 (ip), vehicle: saline): 232 % of control and 301 % of control
- T/C (endpoint: median survival time, dose: 6.0 mg/kg/injection, schedule: Q04DX002 (ip), vehicle: suspension in saline): 153 % of control
- T/C (endpoint: median survival time, dose: 10.0 mg/kg/injection, schedule: Q04DX002 (ip), vehicle: saline): 192 % of control and 209 % of control
- T/C (endpoint: median survival time, dose: 12.0 mg/kg/injection, schedule: Q04DX002 (ip), vehicle: suspension in saline): 228 % of control
- T/C (endpoint: median survival time, dose: 20.0 mg/kg/injection, schedule: Q04DX002 (ip), vehicle: saline): 184 % of control and 348 % of control
- T/C (endpoint: median survival time, dose: 40.0 mg/kg/injection, schedule: Q04DX002 (ip), vehicle: saline): 102 % of control
- T/C (endpoint: median survival time, dose: 48.0 mg/kg/injection, schedule: Q04DX002 (ip), vehicle: suspension in saline): 87 % of control
